From the supplement of paper PMC10331698
± gives the standard deviation of the averaged measurements.

Key:
Assay in all cases: level (log10 ratio to DMSO vehicle control); higher = higher biomarker level / cell amount than vehicle control
[1] = compound: CCOC(=O)CC(=O)C(F)(F)C(F)(F)F [Ethyl pentafluoropropionyl acetate] (in DMSO)
Procedure: (§1)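 BioMAP Diversity Plus panel of 12 human primary cell co-culture systems (3C, 4H, LPS, SAg, BT, BF4T, BE3C, CASM3C, HDF3CGF, KF3CT, MyoF, Mphg). Compounds were added 1 h before stimulation and left for 24 h (MyoF 48 h; BT 72 h for soluble read-outs or 6 d for IgG). Biomarkers were read by ELISA, cytotoxicity by SRB, PBMC viability and proliferation by Alamar Blue. Each well value was divided by the mean of 8 DMSO control wells on the same plate and log10 transformed; duplicate blinded samples were tested at 4 concentrations.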

[2] = compound: C[C@@H]1C[C@H]2[C@@H]3CCC4=CC(=O)C=C[C@]4(C)[C@@]3(F)[C@@H](O)C[C@]2(C)[C@@]1(O)C(=O)COP(=O)(O)O [Dexamethasone sodium phosphate] (in DMSO)
Procedure: as §1

Octafluoroadipic acid = compound: O=C(O)C(F)(F)C(F)(F)C(F)(F)C(F)(F)C(=O)O [Octafluoroadipic acid] (in DMSO)
Procedure: as §1

[3] = compound: O=S(=O)(O)C(F)(F)C(F)(F)OC(F)(F)C(F)(F)F [Perfluoro(2-ethoxyethane)sulfonic acid] (in DMSO)
Procedure: as §1

[4] = compound: OCC(F)(F)C(F)(F)C(F)(F)C(F)(F)C(F)(F)C(F)(F)CO [1H,1H,8H,8H-Perfluorooctane-1,8-diol] (in DMSO)
Procedure: as §1

[5] = compound: OCCC(F)(F)C(F)(F)C(F)(F)C(F)(F)F [4:2 Fluorotelomer alcohol] (in DMSO)
Procedure: as §1

Test System | level (log10) ([1]; 6700 nM) | level (log10) ([1]; 20000 nM) | level (log10) ([1]; 60000 nM) | level (log10) ([2]; 1500 nM) | level (log10) ([2]; 4400 nM) | level (log10) ([2]; 13000 nM) | level (log10) ([2]; 40000 nM) | level (log10) (Octafluoroadipic acid; 6700 nM) | level (log10) (Octafluoroadipic acid; 20000 nM) | level (log10) (Octafluoroadipic acid; 60000 nM) | level (log10) ([3]; 6700 nM) | level (log10) ([3]; 20000 nM) | level (log10) ([3]; 60000 nM) | level (log10) ([4]; 6700 nM) | level (log10) ([4]; 20000 nM) | level (log10) ([4]; 60000 nM) | level (log10) ([5]; 6700 nM) | level (log10) ([5]; 20000 nM) | level (log10) ([5]; 60000 nM)
CASM3C:CD142/Tissue Factor | -0.0235 ± 0.046 | -0.008 ± 0.031 | 0.0035 ± 0.012 | 0.101 ± 0.034 | 0.099 ± 0.042 | 0.0875 ± 0.023 | 0.079 ± 0.0028 | -0.011 ± 0.0071 | -0.0045 ± 0.0092 | -0.0145 ± 0.00071 | -0.023 ± 0.0085 | -0.0335 ± 0.035 | 0.045 ± 0.067 | 0 ± 0.014 | 0 ± 0.023 | 0.012 ± 0.041 | -0.014 ± 0.079 | -0.028 ± 0.0014 | 0.0225 ± 0.046
lMphg:CD106/VCAM-1 | -0.023 ± 0.0028 | 0.013 ± 0.0028 | 0.0195 ± 0.005 | -0.018 ± 0.0071 | -0.039 ± 0.0028 | -0.0615 ± 0.013 | -0.086 ± 0.0042 | -0.007 ± 0.02 | 0.0065 ± 0.011 | 0.0055 ± 0.005 | -0.0225 ± 0.0064 | -0.016 ± 0.017 | -0.023 ± 0.0014 | -0.024 ± 0.041 | -0.0125 ± 0.033 | -0.003 ± 0.048 | -0.0025 ± 0.016 | 0.0005 ± 0.011 | 0.0005 ± 0.025
MyoF:Collagen IV | 0.0045 ± 0.018 | 0.01 ± 0.0028 | 0.0045 ± 0.018 | -0.007 ± 0.021 | 0.011 ± 0.041 | 0.0005 ± 0.037 | 0.0195 ± 0.011 | -0.0175 ± 0.0064 | -0.016 ± 0.016 | 0.002 ± 0.021 | 0.0015 ± 0.0021 | 0.004 ± 0.016 | 0.0315 ± 0.04 | -0.014 ± 0.0057 | -0.0115 ± 0.005 | -0.011 ± 0.042 | 0 ± 0.0057 | -0.0095 ± 0.012 | 0.0285 ± 0.05
MyoF:alpha-SM Actin | -0.0145 ± 0.03 | -0.0235 ± 0.0078 | -0.019 ± 0.013 | 0.073 ± 0.051 | 0.084 ± 0.055 | 0.0695 ± 0.057 | 0.0745 ± 0.063 | 0.007 ± 0.044 | -0.0105 ± 0.052 | 0.007 ± 0.033 | 0.006 ± 0.025 | 0.0075 ± 0.0078 | -0.017 ± 0.0028 | 0.0075 ± 0.005 | 0.0035 ± 0.011 | -0.005 ± 0.0028 | -0.021 | -0.0225 ± 0.0035 | -0.0345 ± 0.018
MyoF:Decorin | -0.0135 ± 0.026 | -0.0025 ± 0.016 | 0.023 ± 0.014 | 0.016 ± 0.011 | 0.0385 ± 0.012 | 0.034 ± 0.033 | 0.039 ± 0.042 | 0.0005 ± 0.011 | -0.0055 ± 0.019 | -0.001 ± 0.013 | -0.0085 ± 0.0092 | 0.001 ± 0.013 | 0.0355 ± 0.005 | -0.006 ± 0.0085 | 0.0195 ± 0.013 | 0.0325 ± 0.016 | -0.0155 ± 0.066 | 0.003 ± 0.028 | 0.0645 ± 0.026
HDF3CGF:Collagen I | -0.0205 ± 0.021 | -0.003 ± 0.051 | -0.0355 ± 0.0092 | -0.0005 ± 0.1 | -0.016 ± 0.047 | -0.0155 ± 0.023 | 0.0075 ± 0.005 | -0.008 ± 0.059 | -0.011 ± 0.024 | 0.042 ± 0.021 | -0.046 ± 0.024 | -0.037 ± 0.031 | 0.017 ± 0.055 | 0.0025 ± 0.012 | 0.025 ± 0.016 | 0.0085 ± 0.035 | -0.0205 ± 0.0078 | -0.0025 ± 0.0092 | 0.0475 ± 0.05
CASM3C:CD106/VCAM-1 | -0.01 ± 0.0085 | -0.011 ± 0.0085 | -0.01 ± 0.023 | 0.117 ± 0.06 | 0.11 ± 0.049 | 0.0875 ± 0.016 | 0.076 ± 0.054 | -0.0055 ± 0.011 | -0.011 ± 0.013 | -0.019 | -0.0035 ± 0.023 | -0.0165 ± 0.026 | 0.001 ± 0.018 | 0.0055 ± 0.022 | 0.02 ± 0.0028 | 0.05 ± 0.0085 | 0.0435 ± 0.023 | -0.0035 ± 0.023 | -0.0005 ± 0.042
HDF3CGF:CD106/VCAM-1 | 0.007 ± 0.011 | -0.0025 ± 0.005 | 0.006 ± 0.02 | -0.006 ± 0.057 | -0.0145 ± 0.035 | -0.054 ± 0.045 | -0.121 ± 0.073 | -0.001 ± 0.0071 | -0.016 ± 0.016 | -0.03 ± 0.04 | -0.01 ± 0.05 | -0.0365 ± 0.09 | -0.016 ± 0.073 | 0.02 ± 0.033 | 0.0365 ± 0.00071 | 0.017 ± 0.052 | -0.023 ± 0.014 | 0.014 ± 0.035 | -0.062 ± 0.057
KF3CT:CXCL8/IL-8 | -0.012 ± 0.018 | -0.0155 ± 0.0021 | -0.0005 ± 0.029 | -0.044 ± 0.05 | -0.05 ± 0.02 | -0.045 ± 0.021 | -0.045 ± 0.0028 | -0.0015 ± 0.015 | 0.0105 ± 0.0092 | 0.012 ± 0.017 | 0.0305 ± 0.016 | 0.0045 ± 0.022 | 0.036 ± 0.016 | -0.0015 ± 0.019 | -0.0215 ± 0.023 | 0 | 0.0025 ± 0.0021 | 0.0185 ± 0.013 | 0.028 ± 0.017
HDF3CGF:EGFR | -0.014 ± 0.0057 | -0.018 ± 0.017 | 0.0125 ± 0.037 | -0.0145 ± 0.086 | -0.043 ± 0.071 | -0.039 ± 0.076 | 0.019 ± 0.014 | 0.0135 ± 0.0078 | 0.032 ± 0.048 | 0.032 ± 0.075 | -0.035 ± 0.05 | -0.017 ± 0.042 | 0.0315 ± 0.07 | 0.006 ± 0.023 | 0.001 ± 0.018 | -0.0185 ± 0.026 | -0.0285 ± 0.028 | -0.001 ± 0.072 | 0.0275 ± 0.053
CASM3C:CD141/Thrombomodulin | -0.005 ± 0.0071 | -0.0005 ± 0.00071 | -0.0115 ± 0.018 | 0.107 ± 0.11 | 0.0895 ± 0.067 | 0.073 ± 0.041 | 0.123 ± 0.011 | 0.0115 ± 0.0021 | 0.0105 ± 0.021 | 0.0065 ± 0.022 | 0.005 ± 0.011 | -0.015 ± 0.0071 | 0.023 ± 0.044 | -0.018 ± 0.0071 | -0.02 ± 0.014 | -0.0005 ± 0.026 | -0.018 ± 0.075 | 0.0295 ± 0.035 | 0.0295 ± 0.043
KF3CT:PAI-I | -0.02 ± 0.023 | -0.01 ± 0.035 | -0.0055 ± 0.026 | 0.0055 ± 0.0021 | 0.0235 ± 0.0092 | 0.002 ± 0.025 | 0.006 | -0.0135 ± 0.0092 | -0.0135 ± 0.011 | -0.002 ± 0.017 | -0.01 | -0.0145 ± 0.0078 | -0.009 ± 0.013 | -0.004 ± 0.0085 | -0.008 ± 0.0071 | -0.0155 ± 0.0021 | -0.0355 ± 0.012 | -0.073 ± 0.027 | 0.041 ± 0.035
3C:CCL2/MCP-1 | -0.012 ± 0.0042 | -0.0185 ± 0.0035 | 0.002 ± 0.0085 | 0.012 ± 0.013 | -0.0125 ± 0.005 | -0.0155 ± 0.00071 | -0.004 ± 0.013 | -0.0115 ± 0.0064 | -0.0105 ± 0.011 | 0.0135 ± 0.036 | -0.022 ± 0.03 | -0.014 ± 0.014 | -0.0095 ± 0.019 | -0.006 ± 0.0014 | -0.0175 ± 0.0092 | 0.002 ± 0.027 | -0.0545 ± 0.074 | -0.0225 ± 0.044 | 0.032 ± 0.011
HDF3CGF:CD54/ICAM-1 | 0.006 ± 0.017 | 0.0055 ± 0.0092 | -0.012 ± 0.034 | 0.004 ± 0.0057 | 0.029 ± 0.042 | 0.01 ± 0.038 | 0.026 ± 0.013 | 0.004 | 0.004 ± 0.0099 | 0.0005 ± 0.016 | -0.0185 ± 0.0035 | -0.0205 ± 0.00071 | -0.012 ± 0.018 | -0.01 ± 0.0099 | 0.009 ± 0.0099 | 0.019 ± 0.0014 | -0.0095 ± 0.019 | -0.0255 ± 0.0035 | -0.0285 ± 0.005
KF3CT:CXCL10/IP-10 | -0.002 ± 0.013 | -0.009 ± 0.0057 | -0.009 ± 0.0071 | 0.0015 ± 0.0021 | 0.01 ± 0.0071 | 0.005 | 0.0055 ± 0.0064 | 0 ± 0.0028 | -0.001 ± 0.0028 | -0.001 ± 0.014 | 0.0025 ± 0.013 | -0.0075 ± 0.011 | -0.009 | -0.003 ± 0.0028 | -0.001 ± 0.014 | -0.009 ± 0.0085 | 0.009 ± 0.04 | -0.0005 ± 0.00071 | 0.019 ± 0.024
